Test results reported in patent publication US7563805B2, “Tri-, tetra-substituted-3-aminopyrrolidine derivative” (Daiichi Pharmaceutical Co., Ltd., priority 2005, dated 2009).
Converted amounts (≈) assume the structure as drawn.

How the values were obtained:
P. vulgaris, 08601 = test: antibacterial activity (MIC), standard method of Japanese Society of Chemotherapy; conditions: Proteus vulgaris, 08601, P. vulgaris
[1] = rat, in vivo, po
Protocol: (§1) The Comparative compound was also evaluated by the same procedure.
(§2) The test substance was orally administered to fasted rats (7 week old male Crj:CD IGS rats purchased from Charles River Laboratories Japan, Inc.) at a dose of 5 mg/kg.
(§3) Animals of absorption test group (3 animals per group) were sacrificed by bleeding under etherization at 0.25, 0.5, 1, 2, 4, and 8 hours after the drug administration, and blood, lever, kidney, and lung were collected. The blood was centrifuged (3000 rpm×15 minutes, 4° C.) after coagulation to collect serum. Tissue was homogenized after adding 3 to 5 mL of 0.1 mol/l phosphate buffer (pH 7.0), and the supernatant was collected from the homogenate (3000 rpm×15 minutes, 4° C.).
(§4) Animals of excretion test group (3 animals per group) were placed in a metabolic cage, and the urine of 0 to 4 hours and 4 to 24 hours after the administration was collected in a water-cooled container. Simultaneously with the collection of the urine, the cage was also washed with about 15 mL of 0.1 mol/l phosphate buffer (pH 7.0) to collect the urine attached to the cage. For evaluation of conjugates such as glucuronide, the collected sample was also aliquoted and hydrolyzed with an equal amount of 1 mol/l aqueous solution of sodium hydroxide, and the hydrolysate was neutralized with 0.5 mol/l hydrochloric acid and measured for its concentration. The concentration was measured by LC-MS/MS method.
(§5) Pharmacokinetic parameters of the each drug in rat were calculated by from the time course of the average concentration by using pharmacokinetic analysis software PSAG-CP (AS Medica Inc.) in a manner not dependent on the model animal.

P. aeruginosa, 32121 = test: antibacterial activity (MIC), standard method of Japanese Society of Chemotherapy; conditions: Pseudomonas aeruginosa
in vivo [2] = conditions: male, Crj:CD IGS, rat, po, 5 mg/kg
Protocol: as §1, §2, §3, §4, §5

S. epidermidis, 56500 = test: antibacterial activity (MIC), standard method of Japanese Society of Chemotherapy; conditions: Staphylococcus epidermidis, 56500, S. epidermidis
[3] = potential convulsant activity upon intracisternal administration, with and without 4-biphenyl acetic acid (BPAA); conditions: 5 μg/5 μL/mouse i. cist
Protocol: The potential convulsant activity upon intracisternal administration to mouse was also evaluated for the concomitant and administration with 4-biphenyl acetic acid (BPAA: an active metabolite of fenbufen) and in the absence of such concomitant administration. The evaluation was conducted by using 4 week old male Slc:ddY mice (6 animals per group) and intracisternally administering the test substance at a dose of 5 μg/5 μL/mouse (solvent, 0.5% lactic acid). Monitoring of the animals for the convulsion and death was started immediately after the administration and continued to 30 minutes after the administration. When used concomitantly with the BPAA, BPAA was suspended in 5% CMC, and 400 mg/kg was orally administered at a solution amount of 10 mL/kg, and the test substance was intracisternally administered 30 minutes after the BPAA.

in vivo [4] = conditions: female, cynomolgus monkey, po, 5 mg/kg
[5] = tested on: penicillin resistant Streptococcus pneumoniae (PRSP) strain 033806; test: mouse local lung infection model by PRSP
[6] = (with BPAA 400 mg/kg oral, 30 minutes before)
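Throughout, for Excretion rate in urine, times higher than Comparative compound 1: fasted 7-week-old rats, three per group, tissue sampled up to 8 h post-dose and urine collected over 0–24 h, with conjugates measured after alkaline hydrolysis, concentrations by LC-MS/MS.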
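Throughout, for Recovery (%) in urine in relation to the amount administered, Recovery (%) including conjugate: fasted 7-week-old rats, three per group, tissue sampled up to 8 h post-dose and urine collected over 0–24 h, with conjugates measured after alkaline hydrolysis, concentrations by LC-MS/MS.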
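Throughout, for Tissue AUC0-8 h, Kidney: fasted 7-week-old rats, three per group, tissue sampled up to 8 h post-dose and urine collected over 0–24 h, with conjugates measured after alkaline hydrolysis, concentrations by LC-MS/MS.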
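Throughout, for serum concentration and tissue concentration, times higher than Comparative compound 1: fasted 7-week-old rats, three per group, tissue sampled up to 8 h post-dose and urine collected over 0–24 h, with conjugates measured after alkaline hydrolysis, concentrations by LC-MS/MS.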

COc1c(N2CC(C)(N)C3(CC3)C2)c(F)cc2c(=O)c(C(=O)O)cn([C@@H]3C[C@@H]3F)c12 (stereo partly drawn) [Example 9, 7-(7-Amino-7-methyl-5-azaspiro[2.4]heptan-5-yl)-6-fluoro-1-[(1R,2S)-2-fluorocyclopropyl]-8-methoxy-1,4-dihydro-4-oxoquinoline-3-carboxylic acid]
MIC (P. vulgaris, 08601): 0.025 µg/mL (≈ 0.0596 µM) | Excretion rate in urine, times higher than Comparative compound 1 ([1]; male, Crj:CD IGS): about 1.5 times | serum concentration and tissue concentration, times higher than Comparative compound 1 ([1]; male, Crj:CD IGS): about 2 times | Recovery (%) in urine in relation to the amount administered, Recovery (%) including conjugate ([1]; male, Crj:CD IGS, 5 mg/kg): 32.0% | Tissue AUC0-8 h, Kidney ([1]; male, Crj:CD IGS, 5 mg/kg): 27800 ng·h/mL | Tissue AUC0-8 h, Liver ([1]; male, Crj:CD IGS, 5 mg/kg): 32100 ng·h/mL | Tissue AUC0-8 h, Lung ([1]; male, Crj:CD IGS, 5 mg/kg): 13700 ng·h/mL | Tissue Cmax, Kidney ([1]; male, Crj:CD IGS, 5 mg/kg): 9.88 µg/g | Tissue Cmax, Liver ([1]; male, Crj:CD IGS, 5 mg/kg): 13.7 µg/g | Tissue Cmax, Lung ([1]; male, Crj:CD IGS, 5 mg/kg): 3.86 µg/g | AUC value, times higher than Comparative compound 1 [1]: 1.5-2 times | MIC (P. aeruginosa, 32121): 0.2 µg/mL (≈ 0.477 µM) | AUC(0-t) (in vivo [2]): 3080 ng·h/mL | Cmax (in vivo [2]): 1220 ng/mL | MIC (S. epidermidis, 56500): 0.1 µg/mL (≈ 0.238 µM) | Number of animals which showed convulsion [3, 6]: 0/6 (0/6) | number of dead animals [3, 6]: 0/6 (0/6) | Number of animals which showed convulsion ([3]; (without BPAA)): 0/6 (0/6) | number of dead animals ([3]; (without BPAA)): 0/6 (0/6) | AUC(0-t) (in vivo [4]): 16900 ng·h/mL | Cmax (in vivo [4]): 2180 ng/mL | half-life (in vivo [4]): 4.8 h | therapeutic effect (number of bacteria in the lung) compared with comparative compound 1 at the same dose ([5]; CBA/JNCrlj mice, oral at 2 and 8 hours after infection, 25, 50, and 100 mg/kg/day (FIG. 2)): no significant difference | in vivo antibacterial activity for the test bacteria relative to comparative compound 1 ([5]; PRSP strain 033806): about ¼
